Molecules are shown by their SMILES.

The values that follow come from patent US8946215B2, “Hydroxy-substituted imidazo[1,2-a]pyridinecarboxamides and their use” (Bayer Pharma Aktiengesellschaft, priority 2012, dated 2015).

The experiment deals with T1, recombinant guanylate cyclase reporter cell line (Rattus norvegicus, UniProt P19686+P20595).
T1 construct: expressed in transfected cells
T1 sequence (P20595 1-619): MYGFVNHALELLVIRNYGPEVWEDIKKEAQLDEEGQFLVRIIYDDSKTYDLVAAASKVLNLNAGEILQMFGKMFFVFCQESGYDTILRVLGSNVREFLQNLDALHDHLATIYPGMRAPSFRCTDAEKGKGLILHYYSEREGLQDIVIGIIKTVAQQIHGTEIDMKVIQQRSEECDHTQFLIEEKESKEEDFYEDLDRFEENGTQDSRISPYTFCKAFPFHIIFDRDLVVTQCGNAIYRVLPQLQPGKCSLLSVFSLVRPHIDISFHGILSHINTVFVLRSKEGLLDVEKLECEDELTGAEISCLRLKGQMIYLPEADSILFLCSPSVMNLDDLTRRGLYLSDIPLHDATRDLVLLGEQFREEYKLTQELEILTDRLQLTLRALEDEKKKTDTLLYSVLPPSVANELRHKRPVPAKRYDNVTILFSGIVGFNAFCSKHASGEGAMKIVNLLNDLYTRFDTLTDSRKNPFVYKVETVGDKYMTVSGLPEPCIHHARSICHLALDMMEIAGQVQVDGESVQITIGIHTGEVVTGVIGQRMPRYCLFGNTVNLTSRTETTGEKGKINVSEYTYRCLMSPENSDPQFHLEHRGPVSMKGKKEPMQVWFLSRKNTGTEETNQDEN
T1 sequence (P19686 1-690): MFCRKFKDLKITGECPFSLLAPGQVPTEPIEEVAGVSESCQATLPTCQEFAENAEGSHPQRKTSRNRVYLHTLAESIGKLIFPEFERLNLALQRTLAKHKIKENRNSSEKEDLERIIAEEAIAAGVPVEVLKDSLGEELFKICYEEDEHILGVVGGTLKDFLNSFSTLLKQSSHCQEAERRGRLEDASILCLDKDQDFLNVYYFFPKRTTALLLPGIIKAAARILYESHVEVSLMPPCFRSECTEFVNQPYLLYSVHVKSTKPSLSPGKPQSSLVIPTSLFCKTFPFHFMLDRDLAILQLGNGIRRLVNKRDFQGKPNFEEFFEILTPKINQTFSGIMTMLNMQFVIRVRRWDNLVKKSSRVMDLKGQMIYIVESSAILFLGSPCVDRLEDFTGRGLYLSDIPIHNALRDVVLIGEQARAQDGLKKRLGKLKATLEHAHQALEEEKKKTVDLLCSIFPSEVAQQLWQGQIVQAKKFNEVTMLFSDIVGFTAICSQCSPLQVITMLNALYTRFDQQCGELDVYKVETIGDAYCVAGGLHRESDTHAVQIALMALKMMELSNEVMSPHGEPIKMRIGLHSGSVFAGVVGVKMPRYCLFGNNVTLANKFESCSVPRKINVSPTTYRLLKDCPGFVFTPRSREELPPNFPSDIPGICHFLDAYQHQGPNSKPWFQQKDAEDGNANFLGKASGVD
As to the kind of experiment: Action on recombinant guanylate cyclase reporter cell line. It counts as cell-based. As to conditions: in some cases mean values obtained from individual determinations. Summed up: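 Cell-based reporter assay with recombinant guanylate cyclase expressed in a reporter cell line, per a published method. Activity reported as minimal effective concentration (MEC), in some cases as the mean of individual determinations.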

In the case of `Cc1cc(OCc2ncccc2F)c2nc(C)c(C(=O)NC(CCC(O)C(F)(F)F)C(C)(C)O)n2c1` (single isomer, unassigned; ent-8) [Example 196, ent-8-[(3-fluoropyridin-2-yl)methoxy]-2,6-dimethyl-N-(7,7,7-trifluoro-2,6-dihydroxy-2-methylheptan-3-yl)imidazo[1,2-a]pyridine-3-carboxamide (enantiomer D)], the “MEC (minimal effective concentration)” value was found to be 3 µM.

Consider `CCCC[C@H](CO)NC(=O)c1c(C)nc2c(OCc3c(F)cccc3F)cccn12` [Example 1, 8-[(2,6-Difluorobenzyl)oxy]-N-[(2R)-1-hydroxyhexan-2-yl]-2-methylimidazo[1,2-a]pyridine-3-carboxamide], for which the “MEC (minimal effective concentration)” value was determined as 0.05 µM.

`CCCC[C@H](CO)NC(=O)c1c(C)nc2c(OCc3c(F)ccc(F)c3F)cccn12` [Example 2]: the “MEC (minimal effective concentration)” value is 0.03 µM.

Consider `CCCC[C@H](CO)NC(=O)c1c(C)nc2c(OCc3c(F)cccc3Cl)cccn12` [Example 3], for which the “MEC (minimal effective concentration)” value came out at 0.1 µM.

Consider `CCCC[C@H](CO)NC(=O)c1c(C)nc2c(OCc3ccccc3Cl)cccn12` [Example 4], for which the “MEC (minimal effective concentration)” value stood at 0.1 µM.

As to `CCCC[C@H](CO)NC(=O)c1c(C)nc2c(OCc3ccccc3F)cccn12` [Example 5], the “MEC (minimal effective concentration)” value was determined as 0.1 µM.

As for `CCCC[C@H](CO)NC(=O)c1c(C)nc2c(OCc3cccc(F)c3)cccn12` [Example 6], the “MEC (minimal effective concentration)” value came out at 0.1 µM.

Consider `CCCC[C@H](CO)NC(=O)c1c(C)nc2c(OCc3c(F)c(F)cc(F)c3F)cccn12` [Example 7], for which the “MEC (minimal effective concentration)” value amounted to 0.3 µM.

Regarding `CCCC[C@H](CO)NC(=O)c1c(C)nc2c(OCc3c(Cl)cccc3Cl)cccn12` [Example 8], the “MEC (minimal effective concentration)” value stood at 0.3 µM.

For the compound `CCCC[C@H](CO)NC(=O)c1c(C)nc2c(OCc3cccc(Cl)c3Cl)cccn12` [Example 9], the “MEC (minimal effective concentration)” value amounted to 0.5 µM.

Regarding `CCCC[C@H](CO)NC(=O)c1c(C)nc2c(OCc3cccc(F)c3F)cccn12` [Example 10], the “MEC (minimal effective concentration)” value was found to be 0.3 µM.

As to `CCCC[C@H](CO)NC(=O)c1c(C)nc2c(OCc3cccc(C)c3F)cccn12` [Example 11], the “MEC (minimal effective concentration)” value was found to be 1.5 µM.

As for `CCCC[C@H](CO)NC(=O)c1c(C)nc2c(OCc3cccc4c3OC(F)(F)O4)cccn12` [Example 12], the “MEC (minimal effective concentration)” value was determined as 3.0 µM.

As for `CCCC[C@H](CO)NC(=O)c1c(C)nc2c(OCc3c(C)cccc3C)cccn12` [Example 13], the “MEC (minimal effective concentration)” value amounted to 3.0 µM.

As to `CCCC[C@H](CO)NC(=O)c1c(C)nc2c(OCc3cccc(C(F)(F)F)c3F)cccn12` [Example 14], the “MEC (minimal effective concentration)” value is 3.0 µM.

Turning to `CCCC[C@H](CO)NC(=O)c1c(C)nc2c(OCc3c(F)cc(F)cc3F)cccn12` [Example 15, N-[(2R)-1-Hydroxyhexan-2-yl]-2-methyl-8-[(2,4,6-trifluorobenzyl)oxy]imidazo[1,2-a]pyridine-3-carboxamide], the “MEC (minimal effective concentration)” value came out at 0.1 µM.

Turning to `CC[C@H](CO)NC(=O)c1c(C)nc2c(OCc3ccccc3)cccn12` [Example 17, 8-(Benzyloxy)-N-[(2R)-1-hydroxybutan-2-yl]-2-methylimidazo[1,2-a]pyridine-3-carboxamide], the “MEC (minimal effective concentration)” value was 3.0 µM.

For `CCC[C@H](CO)NC(=O)c1c(C)nc2c(OCc3c(F)cccc3F)cccn12` [Example 18], the “MEC (minimal effective concentration)” value worked out at 0.1 µM.

With `Cc1nc2c(OCc3c(F)cccc3F)cccn2c1C(=O)N[C@H]1CCC[C@@H]1O` [Example 19], the “MEC (minimal effective concentration)” value stood at 1.0 µM.

On to `Cc1nc2c(OCc3c(F)cccc3F)cccn2c1C(=O)NC(C)(C)[C@H](C)O` [Example 20], for which the “MEC (minimal effective concentration)” value is 1.0 µM.

As for `Cc1nc2c(OCc3c(F)cccc3F)cccn2c1C(=O)NCCO` [Example 21], the “MEC (minimal effective concentration)” value stood at 1.0 µM.

As for `Cc1nc2c(OCc3c(F)cccc3F)cccn2c1C(=O)NCCCO` [Example 22], the “MEC (minimal effective concentration)” value stood at 1.0 µM.

As for `Cc1nc2c(OCc3c(F)cccc3F)cccn2c1C(=O)NCCCCO` [Example 23], the “MEC (minimal effective concentration)” value worked out at 0.3 µM.

For `Cc1nc2c(OCc3c(F)cccc3F)cccn2c1C(=O)NCCOCCO` [Example 24], the “MEC (minimal effective concentration)” value worked out at 1.0 µM.

`CSCC[C@H](CO)NC(=O)c1c(C)nc2c(OCc3c(F)cccc3F)cccn12` [Example 25]: the “MEC (minimal effective concentration)” value was 0.1 µM.

As for `Cc1nc2c(OCc3c(F)cccc3F)cccn2c1C(=O)NC(CO)CO` [Example 26], the “MEC (minimal effective concentration)” value stood at 2.0 µM.

Consider `Cc1nc2c(OCc3c(F)cccc3F)cccn2c1C(=O)NCC1CCCC[C@H]1O` (stereo partly shown) [Example 27], for which the “MEC (minimal effective concentration)” value was found to be 0.3 µM.

As for `Cc1nc2c(OCc3c(F)cccc3F)cccn2c1C(=O)NCCC(C)O` (stereo not shown) [Example 28], the “MEC (minimal effective concentration)” value worked out at 0.65 µM.

In the case of `Cc1nc2c(OCc3c(F)cccc3F)cccn2c1C(=O)N[C@@H](CO)C(C)C` [Example 29], the “MEC (minimal effective concentration)” value was 0.1 µM.

As to `CCC(O)CNC(=O)c1c(C)nc2c(OCc3c(F)cccc3F)cccn12` (stereo not shown) [Example 30], the “MEC (minimal effective concentration)” value came out at 0.3 µM.

`Cc1nc2c(OCc3c(F)cccc3F)cccn2c1C(=O)NC1(CO)CCCC1` [Example 31]: the “MEC (minimal effective concentration)” value turned out to be 1.0 µM.

On to `Cc1nc2c(OCc3c(F)cccc3F)cccn2c1C(=O)NC[C@@H](O)c1ccccc1` [Example 32], for which the “MEC (minimal effective concentration)” value was determined as 1.0 µM.

Regarding `Cc1nc2c(OCc3c(F)cccc3F)cccn2c1C(=O)NC[C@H](O)c1ccccc1` [Example 33], the “MEC (minimal effective concentration)” value was determined as 0.3 µM.

As for `Cc1nc2c(OCc3c(F)cccc3F)cccn2c1C(=O)NC(C)(C)CO` [Example 34], the “MEC (minimal effective concentration)” value came to 0.3 µM.

Consider `Cc1nc2c(OCc3c(F)cccc3F)cccn2c1C(=O)N[C@@H](CO)C(C)(C)C` [Example 35], for which the “MEC (minimal effective concentration)” value was found to be 0.3 µM.

For the compound `Cc1nc2c(OCc3c(F)cccc3F)cccn2c1C(=O)N[C@@H]1CCC[C@H]1O` [Example 36], the “MEC (minimal effective concentration)” value is 0.1 µM.

For the compound `Cc1nc2c(OCc3c(F)cccc3F)cccn2c1C(=O)N[C@@H]1CCC[C@@H]1O` [Example 37], the “MEC (minimal effective concentration)” value was determined as 0.3 µM.

In the case of `Cc1nc2c(OCc3c(F)cccc3F)cccn2c1C(=O)N[C@@H](CO)Cc1ccccc1` [Example 38], the “MEC (minimal effective concentration)” value came to 0.3 µM.

In the case of `Cc1nc2c(OCc3c(F)cccc3F)cccn2c1C(=O)N[C@@H](CO)CC(C)C` [Example 39, 8-[(2,6-Difluorobenzyl)oxy]-N-[(2R)-1-hydroxy-4-methylpentan-2-yl]-2-methylimidazo[1,2-a]-pyridine-3-carboxamide], the “MEC (minimal effective concentration)” value is 0.03 µM.

For `Cc1nc2c(OCc3c(F)cccc3F)cccn2c1C(=O)N[C@H]1c2ccccc2C[C@H]1O` [Example 40, 8-[(2,6-difluorobenzyl)oxy]-N-[(1S,2R)-2-hydroxy-2,3-dihydro-1H-inden-1-yl]-2-methylimidazo[1,2-a]pyridine-3-carboxamide], the “MEC (minimal effective concentration)” value was 0.1 µM.

On to `Cc1nc2c(OCc3c(F)cccc3F)cccn2c1C(=O)NCC(C)(C)CO` [Example 41, 8-[(2,6-difluorobenzyl)oxy]-N-(3-hydroxy-2,2-dimethylpropyl)-2-methylimidazo[1,2-a]-pyridine-3-carboxamide], for which the “MEC (minimal effective concentration)” value is 3.0 µM.

As to `CC[C@H](CO)NC(=O)c1c(C)nc2c(OCc3c(F)cccc3F)cccn12` [Example 43, 8-[(2,6-Difluorobenzyl)oxy]-N-[(2R)-1-hydroxybutan-2-yl]-2-methylimidazo[1,2-a]pyridine-3-carboxamide], the “MEC (minimal effective concentration)” value worked out at 0.16 µM.

Regarding `CC[C@H](CO)NC(=O)c1c(C)nc2c(OCc3cccc(F)c3F)cccn12` [Example 44, 8-[(2,3-difluorobenzyl)oxy]-N-[(2R)-1-hydroxybutan-2-yl]-2-methylimidazo[1,2-a]-pyridine-3-carboxamide], the “MEC (minimal effective concentration)” value stood at 0.3 µM.
